According to patent US4728650A, “3,4-dihydrobenzopyran derivatives and medicinal uses thereof” (Kuraray Co., Ltd., priority 1985, dated 1988):

Legend:
[1] = Expectorant action: tracheal secretion of fluorescein sodium in rats; format: in vivo, Wistar rats (male); settings: 50 mg/kg oral
Protocol: Male Wistar rats (body weights, 280-320 g) were used in groups of 7 animals. Each test compound was orally administered in dose of 50 mg/kg body weight to rats. Immediately after administration, 0.3 ml/100 g (body weight of rat) of a 1% aqueous solution of fluorescein sodium was injected into the caudal vein. One hour after administration of the test compound, pentobarbital sodium 100 mg/kg (body weight of rat) was injected intraperitoneally so that deep anesthesia might cause the rat to die. Then, the trachea was exposed and an incision was made in the trachea. A sonde was inserted thereinto and ligation was made. To the sonde was connected a syringe containing 10 ml of a 5% solution of sodium hydrogen carbonate kept at 37° C. and 4 ml of the solution of sodium hydrogen carbonate was injected into the lung. After 5 minutes, the fluid in the lung was removed. After this procedure of injection and removal was repeated three times, the fluid removed from the lung was filtered and the filtrate was made up with water to make 20 ml. The intensity of fluroescence was determined at the excitation wave length of 491 nm and the fluorescence wave length of 510 nm using a spectrophotometer (HITACHI model 650-10, Hitachi, Ltd.). The amount of fluorescein sodium secreted into the trachea was estimated from the intensity of fluorescence. Each test compound was administered as suspended in a gum arabic solution in concentration of 5%.

[2] = Hydrochloric acid-ethanol-induced ulcer in rats; format: in vivo, Wistar rats (male)
Protocol: Male Wistar rats (body weights, 170-210 g) were used in groups of 6 to 8 animals. Indomethacin, 20 mg/kg body weight, was injected subcutaneously to rats which had been deprived of food for 24 hours. After 7 hours, the stomach was excised under ether anesthesia. A 10% aqueous solution of formaldehyde was infused into the stomach until the stomach was inflated and, then, the stomach was immersed in a 10% aqueous solution of formaldehyde for 10 minutes for fixation of the tissue. After fixation, an incision was made along the greater curvature and the length of ulcers occurring in the glandular portion of the stomach was measured. The total length of ulcers occurring in a rat was taken as an ulcer index. Each test compound was orally administered, as suspended in a gum arabic solution in concentration of 5%, to rats 10 minutes before subcutaneous injection of indomethacin. Male Wistar rats (body weights, 160-190 g) were used in groups of 6 to 8 animals. One milliliter of a 60% aqueous solution of ethanol containing 150 mM hydrochloric acid was administered orally to rats which had been deprived of food for 24 hours. After one hour, the stomach was excised under ether anesthesia. In a manner similar to that described in study for indomethacin-induced ulcer, the ulcer index was determined. Each test compound was orally administered, as suspended in a gum arabic solution in concentration of 5%, to rats 1 hour before administration of hydrochloric acid-ethanol.

[3] = Rattus norvegicus, po, 1 h, Table 7, 25 mg/kg p.o.
[4] = Table 6, 25 mg/kg p.o., control 9.69 ± 1.68
[5] = Rattus norvegicus, po, 1 h, Table 7, 50 mg/kg p.o.
[6] = Table 5, 50 mg/kg p.o., control 11.09 ± 1.49
[7] = Rattus norvegicus, po, 1 h, Table 8, 50 mg/kg p.o.
[8] = Table 8, 50 mg/kg p.o., control 9.69 ± 1.68
[9] = Table 5, 25 mg/kg p.o., control 11.09 ± 1.49
[10] = Rattus norvegicus, po, 1 h, Table 12, 25 mg/kg p.o.
[11] = Rattus norvegicus, po, 1 h, Table 12, 50 mg/kg p.o.
[12] = Rattus norvegicus, po, 1 h, Table 12, 100 mg/kg p.o.
[13] = Table 12, 25 mg/kg p.o., control 9.93 ± 0.91
[14] = Table 12, 50 mg/kg p.o., control 9.93 ± 0.91
[15] = Table 12, 100 mg/kg p.o., control 9.93 ± 0.91
[16] = Rattus norvegicus, po, 1 h, Table 7, 12.5 mg/kg p.o.

COc1ccc2c(c1)OC(C)(CCN1CCN(C(=O)c3cc(OC)c(OC)c(OC)c3)CC1)CC2 (stereo not drawn) [Compound (25), 1-[2-(3,4-Dihydro-7-methoxy-2-methyl-2H-benzopyran-2-yl)ethyl]-4-(3,4,5-trimethoxybenzoyl)piperazine]
Secretory amount (mean ± S.E.) ([1]; Table 14, control 1.60 ± 0.18): 3.08 ± 0.19 μg/100 g (body weight of rat)/

COc1c(C)c(C)c2c(c1C)CCC(C)(C(=O)NC(=N)N)O2 (stereo not drawn) [Compound (4), N-(3,4-Dihydro-6-methoxy-2,5,7,8-tetramethyl-2H-benzopyran-2-yl)carbonylguanidine]
inhibition in vivo at 25 mg/kg [2, 3]: 100% | Ulcer index (mean ± S.E.) [2, 4]: 0.00 ± 0.00 mm

COc1c(C)c(C)c2c(c1C)CCC(C)(CCNC(=N)N)O2 (stereo not drawn) [Compound (10), N-[2-(3,4-Dihydro-6-methoxy-2,5,7,8-tetramethyl-2H-benzopyran-2-yl)ethyl]guanidine]
inhibition in vivo at 50 mg/kg [2, 5]: 72.6% | Ulcer index (mean ± S.E.) [2, 6]: 3.04 ± 1.33 mm

COc1ccc2c(c1)CCC(C)(CC(=O)NC(=N)N)O2 (stereo not drawn) [Compound (6), N-(3,4-Dihydro-6-methoxy-2-methyl-2H-benzopyran-2-yl)acetylguanidine]
inhibition in vivo at 25 mg/kg [2, 3]: 79.1% | Ulcer index (mean ± S.E.) [2, 4]: 2.03 ± 1.04 mm

COc1c(C)c(C)c2c(c1C)CCC(C)(CCN1CCN(CCO)CC1)O2 (stereo not drawn) [Compound (35), 1-[2-(3,4-Dihydro-6-methoxy-2,5,7,8-tetramethyl-2H-benzopyran-2-yl)ethyl]-4-(2-hydroxyethyl)piperazine]
Secretory amount (mean ± S.E.) ([1]; Table 16, control 6.455 ± 0.766): 10.297 ± 1.841 μg/100 g (body weight of rat)/

COc1c(C)c(C)c2c(c1C)CCC(C)(CCN1CCN(CC=C(C)CCC=C(C)C)CC1)O2 (stereo not drawn) [Compound (14), 3,4-Dihydro-6-methoxy-2-[2-[4-(3,7-dimethyl-2,6-octadienyl)piperazin-1-yl]ethyl]-2,5,7,8-tetramethyl-2H-benzopyran]
inhibition in vivo at 50 mg/kg [2, 7]: 100% | Ulcer index (mean ± S.E.) [2, 8]: 0.00 ± 0.00 mm

COc1ccc(CN2CCN(C(=O)CC3(C)CCc4c(C)c(OC)c(C)c(C)c4O3)CC2)c(OC)c1OC (stereo not drawn) [Compound (28), 1-[(3,4-Dihydro-6-methoxy-2,5,7,8-tetramethyl-2H-benzopyran-2-yl)acetyl]-4-(2,3,4-trimethoxybenzyl)piperazine]
Secretory amount (mean ± S.E.) ([1]; Table 14, control 1.60 ± 0.18): 3.28 ± 0.31 μg/100 g (body weight of rat)/

CC(C)=CCOc1c(C)c(C)c2c(c1C)CCC(C)(CC(=O)NC(=N)N)O2 (stereo not drawn) [Compound (3), N-(3,4-Dihydro-6-prenyloxy-2,5,7,8-tetramethyl-2H-benzopyran-2-yl)acetylguanidine]
inhibition in vivo at 25 mg/kg [2, 3]: 98.7% | Ulcer index (mean ± S.E.) [2, 9]: 0.14 ± 0.14 mm

COc1ccc(CN2CCN(C(=O)C3(C)CCc4c(C)c(OC)c(C)c(C)c4O3)CC2)c(OC)c1OC (stereo not drawn) [Compound (30), 1-[(3,4-Dihydro-6-methoxy-2,5,7,8-tetramethyl-2H-benzopyran-2-yl)carbonyl]-4-(2,3,4-trimethoxybenzyl)piperazine]
Secretory amount (mean ± S.E.) ([1]; Table 13, control 5.30 ± 0.40): 5.45 ± 0.54 μg/100 g (body weight of rat)/

CNC(=N)NCCC1(C)CCc2c(C)c(OC)c(C)c(C)c2O1 (stereo not drawn) [Compound (11), N-[2-(3,4-Dihydro-6-methoxy-2,5,7,8-tetramethyl-2H-benzopyran-2-yl)ethyl]-N'-methylguanidine]
inhibition in vivo at 50 mg/kg [2, 5]: 98.2% | Ulcer index (mean ± S.E.) [2, 6]: 0.20 ± 0.14 mm

CNC(=S)NCCC1(C)CCc2c(C)c(OC)c(C)c(C)c2O1 (stereo not drawn) [Compound (9), N-[2-(3,4-Dihydro-6-methoxy-2,5,7,8-tetramethyl-2H-benzopyran-2-yl)ethyl]-N'-methylthiourea]
inhibition in vivo at 25 mg/kg [2, 3]: 47.3% | inhibition in vivo at 50 mg/kg [2, 5]: 95.4% | Ulcer index (mean ± S.E.) [2, 9]: 5.84 ± 0.75 mm

COc1c(C)c(C)c2c(c1C)CCC(C)(CCC(=O)NC(=N)N)O2 (stereo not drawn) [Compound (5)]
inhibition in vivo at 25 mg/kg [2, 3]: 100% | Ulcer index (mean ± S.E.) [2, 9]: 0.00 ± 0.00 mm

CC(C)=CCOc1ccc(/C=C/C(=O)c2ccc(OCC=C(C)C)cc2OCC(=O)O)cc1 [Sofalcone, 2'-carboxymethoxy-4,4'-bis(3-methyl-2-butenyloxy)calcon, reference compound]
inhibition in vivo at 25 mg/kg [2, 10]: 25.8% | inhibition in vivo at 25 mg/kg [2, 3]: 25.8% | inhibition in vivo at 50 mg/kg [2, 5]: 38.3% | inhibition in vivo at 50 mg/kg [2, 11]: 38.3% | inhibition in vivo at 100 mg/kg [2, 12]: 39.8% | inhibition in vivo at 300 mg/kg ([2]; Rattus norvegicus, po, 1 h, Table 12, 300 mg/kg p.o.): 100% | Ulcer index (mean ± S.E.) [2, 13]: 7.37 ± 0.54 mm | Ulcer index (mean ± S.E.) [2, 14]: 6.13 ± 0.91 mm | Ulcer index (mean ± S.E.) [2, 15]: 5.98 ± 1.04 mm | Ulcer index (mean ± S.E.) ([2]; Table 12, 300 mg/kg p.o., control 9.93 ± 0.91): 0.00 ± 0.00 mm

COc1ccc2c(c1)OC(C)(CC(=O)NC(=N)N)CC2 (stereo not drawn) [Compound (7), N-(3,4-Dihydro-7-methoxy-2-methyl-2H-benzopyran-2-yl)acetylguanidine]
inhibition in vivo at 12.5 mg/kg [2, 16]: 71.9% | inhibition in vivo at 25 mg/kg [2, 3]: 84.2% | Ulcer index (mean ± S.E.) ([2]; Table 5, 12.5 mg/kg p.o., control 11.09 ± 1.49): 3.12 ± 0.66 mm | Ulcer index (mean ± S.E.) [2, 4]: 1.53 ± 0.66 mm

COc1cc(CN2CCN(CCC3(C)CCc4c(C)c(OC)c(C)c(C)c4O3)CC2)cc(OC)c1OC (stereo not drawn) [Compound (18), 3,4-Dihydro-6-methoxy-2-[2-[4-(3,4,5-trimethoxybenzyl)piperazin-1-yl]ethyl]-2,5,7,8-tetramethyl-2H-benzopyran]
inhibition in vivo at 50 mg/kg ([2]; Rattus norvegicus, po, 1 h, Table 10, 50 mg/kg p.o.): 83.2% | Ulcer index (mean ± S.E.) ([2]; Table 10, 50 mg/kg p.o., control 5.98 ± 1.96): 0.98 ± 0.98 mm

COc1c(C)c(C)c2c(c1C)CCC(C)(CCN1CCN(CC=C(C)C)CC1)O2 (stereo not drawn) [Compound (13), 3,4-Dihydro-6-methoxy-2-[2-[4-(3-methyl-2-butenyl)piperazin-1-yl]ethyl]-2,5,7,8-tetramethyl-2H-benzopyran]
inhibition in vivo at 50 mg/kg [2, 7]: 100% | Ulcer index (mean ± S.E.) [2, 8]: 0.00 ± 0.00 mm

COc1c(C)c(C)c2c(c1C)CCC(C)(CCN1CCNCC1)O2 (stereo not drawn) [Compound (12), 3,4-Dihydro-6-methoxy-2-[2-(piperazin-1-yl)ethyl]-2,5,7,8-tetramethyl-2H-benzopyran]
inhibition in vivo at 25 mg/kg ([2]; Rattus norvegicus, po, 1 h, Table 8, 25 mg/kg p.o.): 98.7% | inhibition in vivo at 50 mg/kg [2, 7]: 100% | Ulcer index (mean ± S.E.) ([2]; Table 8, 25 mg/kg p.o., control 9.69 ± 1.68): 0.13 ± 0.13 mm | Ulcer index (mean ± S.E.) [2, 8]: 0.00 ± 0.00 mm

COc1c(C)c(C)c2c(c1C)CCC(C)(CCN1CCN(CC=C(C)CCC=C(C)CCC=C(C)C)CC1)O2 (stereo not drawn) [Compound (15), 3,4-Dihydro-6-methoxy-2-[2-[4-(3,7,11-trimethyl-2,6,10-dodecatrienyl)piperazin-1-yl]ethyl]-2,5,7,8-tetramethyl-2H-benzopyran]
inhibition in vivo at 50 mg/kg [2, 7]: 100% | Ulcer index (mean ± S.E.) [2, 8]: 0.00 ± 0.00 mm

CC(=O)CCC=C(C)CC/C=C(\C)CC/C=C(\C)CCC=C(C)C [Teprenone, reference compound]
inhibition in vivo at 25 mg/kg [2, 10]: 78.4% | inhibition in vivo at 12.5 mg/kg [2, 16]: 33.8% | inhibition in vivo at 25 mg/kg [2, 3]: 78.4% | inhibition in vivo at 50 mg/kg [2, 11]: 91.4% | inhibition in vivo at 100 mg/kg [2, 12]: 96.3% | Ulcer index (mean ± S.E.) [2, 13]: 2.15 ± 1.26 mm | Ulcer index (mean ± S.E.) [2, 14]: 0.85 ± 0.61 mm | Ulcer index (mean ± S.E.) [2, 15]: 0.37 ± 0.37 mm

CC1(CC(=O)NC(=N)N)CCc2cc(Cl)ccc2O1 (stereo not drawn) [Compound (8), N-(3,4-Dihydro-6-chloro-2-methyl-2H-benzopyran-2-yl)acetylguanidine]
inhibition in vivo at 25 mg/kg [2, 3]: 100% | Ulcer index (mean ± S.E.) [2, 4]: 0.00 ± 0.00 mm

CCOc1c(C)c(C)c2c(c1C)CCC(C)(CC(=O)NC(=N)N)O2 (stereo not drawn) [Compound (2), N-(3,4-Dihydro-6-ethoxy-2,5,7,8-tetramethyl-2H-benzopyran-2-yl)acetylguanidine]
inhibition in vivo at 25 mg/kg [2, 3]: 89% | Ulcer index (mean ± S.E.) [2, 9]: 0.50 ± 0.34 mm
